Consider two compounds from article PMC3086806, “Mining a Cathepsin Inhibitor Library for New Antiparasitic Drug Leads” (PLoS Neglected Tropical Diseases, 2011).

Molecules are shown by their SMILES.

The subject of data set [1] is bovine embryo skeletal muscle (BESM) cells. In words: Toxicity toward host BESM cells in the T. cruzi assay. Format: cell-based. The note with it: 20 µM. How it is done: (§1) The growth inhibition assay for the intracellular T. cruzi was conducted in 96-well plate format as described previously. Briefly, bovine embryo skeletal muscle (BESM) cells (2×10^3/well), seeded overnight, were infected with CA-I/72 T. cruzi trypomastigotes (2×10^3/well). Sixteen hours post-infection, test compounds (serial dilution concentrations starting from 20 µM) were added and assay plates were incubated for an additional 72 hours at 37°C with 5% CO2. Cells were then washed once in PBS, fixed with 4% paraformaldehyde and stained with DNA fluorescent dye DAPI (4′ 6-diamidino-2-phenylindole). The assay plates were then imaged in the IN Cell Analyzer 2000 (GE Healthcare) with the excitation and emission filters set of 350 nm and 460 nm, respectively, to detect DAPI signals. The feature extraction module in IN Cell Developer Toolbox 1.7 software was used to count host nuclei and parasite kinetoplasts by size difference.
(§2) All falcipain-3 inhibitors were also tested against falcipain-2. […] The entire library was examined for cytotoxicity to a mammalian cell line (Jurkat) at a concentration of 10 µM, and those compounds studied in the T. cruzi assay were also evaluated for toxicity (at 20 µM) toward the host BESM cells used in that assay. […]

A further data set concerns the target human cathepsin B. On the set-up: method as in data provided by Celera Genomics. The note with it: historical data; ref data provided by Celera Genomics; read-out: Ki catB; cited from earlier work.
For data set [2], the system named is intracellular T. cruzi (CA-I/72) in BESM cells. In words: T. cruzi amastigote growth inhibition assay. The note with it: Trypanosoma cruzi; infected BESM cells, 72 hours. In kind it is cell-based. How it is done:
as §1

Data set [3] deals with T. brucei brucei clone 427-221a bloodstream forms. The data set can be described thus: T. brucei brucei growth inhibition assay. Format: cell-based. The note with it: Trypanosoma brucei; 40 hours. How it is done: The growth inhibition assay for T. brucei brucei was conducted as described previously. Bloodstream forms of the monomorphic T. brucei brucei clone 427-221a were grown in complete HMI-9 medium containing 10% FBS, 10% Serum Plus medium (Sigma Inc. St. Louis Mo. USA), 50 U/mL penicillin and 50 µg/mL streptomycin (Invitrogen) at 37°C under a humidified atmosphere and 5% CO2. […] 5 µL of each dilution was added to 95 µL of diluted parasites (1×10^4 cells per well) in sterile Greiner 96-well flat white opaque culture plates such that the final DMSO concentration was 0.5%. The 0% inhibition control wells contained 0.5% DMSO while 100% inhibition control wells contained 50 µM thimerosal (Sigma). After compound addition, plates were incubated for 40 hours at 37°C. At the end of the incubation period, 50 µL of CellTiter-Glo™ reagent (Promega Inc., Madison, WI, USA) was added to each well and plates were placed on an orbital shaker at room temperature for 2 min to induce lysis. After an additional 10 min incubation without shaking to stabilize the signal, the ATP-bioluminescence of each well was determined using an Analyst HT plate reader (Molecular Devices, Sunnyvale, CA, USA). Raw values were converted to log10 and percentage inhibition calculated relative to the controls. IC50 curve fittings were performed with Prism 4 software as above.

The next data set concerns the target T1, cruzain (Trypanosoma cruzi, UniProt P25779).
T1 construct: made in house
The data set can be described thus: Cruzain protease inhibition assay (Z-Phe-Arg-AMC). Format: biochemical. How it is done:
(§3) Recombinant cruzain, rhodesain, TbCatB, falcipain-2 and falcipain-3 were expressed as described previously, [39], [40], [41], [42]. Inhibitor stock solutions were prepared in DMSO and screened at 0.1 µM for cruzain and rhodesain, 1 µM for TbCatB and 50 nM for falcipain-3 (0.5% DMSO in assay). […] Protease inhibition assays for cruzain and rhodesain were carried out in 96 well plate format as described previously. Cruzain (4 nM), rhodesain (4 nM) or TbCatB (258 nM) was incubated with test compound in 100 mM sodium acetate, pH 5.5, containing 5 mM DTT and 0.01% Triton X-100 (buffer A), for 5 min at room temperature (the higher concentration of TbCatB was required due to its lower intrinsic activity against the fluorogenic substrate). Then buffer A containing Z-Phe-Arg-AMC (Bachem) was added to enzyme-compound mixture to give 10 µM substrate in a final assay volume of 200 µL. The rate of free AMC release was measured at excitation and emission wavelengths of 355 and 460 nm, respectively, with a microtiter plate spectrofluorimeter (SpectraMax M5, Molecular Devices) for 3 min. Percentage inhibition of test compound was calculated relative to the DMSO control (0% inhibition control). IC50 values were determined with Prism 4 software (GraphPad, San Diego, CA) using sigmoidal dose-response variable slope model.

Another data set concerns the target T2, rhodesain (Trypanosoma brucei rhodesiense, UniProt Q95PM0).
T2 construct: made in house
The data set can be described thus: Rhodesain protease inhibition assay (Z-Phe-Arg-AMC). Format: biochemical. How it is done:
as §3

Another data set concerns the target human cathepsin L. On the set-up: method as in data provided by Celera Genomics. The following applies: historical data; ref data provided by Celera Genomics; read-out: Ki catL; cited from earlier work.
Data set [4] can be described thus: Jurkat cell cytotoxicity assay. In kind it is cell-based. The note with it: human, Jurkat cells (clone E6-1), read-out: Cytotoxicity (% inhibition at 10 µM) Jurkat cells. How it is done:
(§4) Jurkat cells (clone E6-1) were grown in complete RPMI-1640 medium containing 10% FBS, 50 U/mL penicillin and 50 µg/mL streptomycin (Invitrogen) at 37°C under a humidified atmosphere and 5% CO2. For cytotoxicity testing, cells were diluted to 1×10^5 per ml in complete RPMI-1640 medium. Test compound stocks were prepared in 100% DMSO and screened at 10 µM against cells (1×10^4 cells per well) in sterile Greiner 96-well flat white opaque culture plates (0.5% final DMSO concentration). The 0% inhibition control wells contained 0.5% DMSO while 100% inhibition control wells contained 40 µM staurosporine. After compound addition, plates were incubated for 40 hr at 37°C. At the end of the incubation period, 50 µL of CellTiter-Glo™ reagent (Promega Inc., Madison, WI, USA) was added to each well and plates were placed on an orbital shaker at room temperature for 2 min to induce lysis. After a further 10 min incubation without shaking to stabilize the signal, the ATP-bioluminescence of each well was determined using an Analyst HT plate reader (Molecular Devices, Sunnyvale, CA, USA). Calculations of percentage inhibition and IC50 were performed similar to those in the T. brucei brucei assay.

Data set [5] has as its system Jurkat cells (clone E6-1). In words: Jurkat cell cytotoxicity assay. In kind it is cell-based. The note with it: 40 hr. How it is done: as §4
A short description of data set [6]: Toxicity toward host BESM cells in the T. cruzi assay. Format: cell-based, bovine. The note with it: bovine; highest assay concentration 20 µM. How it is done: as §1, §2
A further data set concerns the target T3, TbCatB (Trypanosoma brucei, UniProt Q6R7Z5).
T3 construct: made in house
T3 sequence (Q6R7Z5 23-340): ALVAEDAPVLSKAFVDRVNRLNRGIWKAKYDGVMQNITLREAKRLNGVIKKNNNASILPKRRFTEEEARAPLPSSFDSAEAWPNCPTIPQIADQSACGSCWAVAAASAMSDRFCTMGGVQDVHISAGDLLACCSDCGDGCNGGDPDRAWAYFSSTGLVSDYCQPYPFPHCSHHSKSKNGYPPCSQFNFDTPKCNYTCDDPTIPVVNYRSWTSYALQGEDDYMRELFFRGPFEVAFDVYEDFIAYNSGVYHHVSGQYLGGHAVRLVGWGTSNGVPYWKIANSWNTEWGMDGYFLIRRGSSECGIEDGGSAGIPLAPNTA
In words: TbCatB protease inhibition assay (Z-Phe-Arg-AMC). In kind it is biochemical. How it is done:
as §3

T1 sequence (P25779 123-467): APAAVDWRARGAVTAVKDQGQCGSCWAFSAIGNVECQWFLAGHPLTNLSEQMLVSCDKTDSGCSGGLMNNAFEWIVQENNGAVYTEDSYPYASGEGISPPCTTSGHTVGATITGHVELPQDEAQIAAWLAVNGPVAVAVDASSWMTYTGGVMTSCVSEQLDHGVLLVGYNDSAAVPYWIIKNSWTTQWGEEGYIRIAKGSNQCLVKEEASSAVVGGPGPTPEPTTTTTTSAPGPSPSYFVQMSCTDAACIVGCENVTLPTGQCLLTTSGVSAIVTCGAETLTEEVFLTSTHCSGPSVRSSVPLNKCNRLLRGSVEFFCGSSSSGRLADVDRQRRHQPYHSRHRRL
T2 sequence (Q95PM0 entry or part of it): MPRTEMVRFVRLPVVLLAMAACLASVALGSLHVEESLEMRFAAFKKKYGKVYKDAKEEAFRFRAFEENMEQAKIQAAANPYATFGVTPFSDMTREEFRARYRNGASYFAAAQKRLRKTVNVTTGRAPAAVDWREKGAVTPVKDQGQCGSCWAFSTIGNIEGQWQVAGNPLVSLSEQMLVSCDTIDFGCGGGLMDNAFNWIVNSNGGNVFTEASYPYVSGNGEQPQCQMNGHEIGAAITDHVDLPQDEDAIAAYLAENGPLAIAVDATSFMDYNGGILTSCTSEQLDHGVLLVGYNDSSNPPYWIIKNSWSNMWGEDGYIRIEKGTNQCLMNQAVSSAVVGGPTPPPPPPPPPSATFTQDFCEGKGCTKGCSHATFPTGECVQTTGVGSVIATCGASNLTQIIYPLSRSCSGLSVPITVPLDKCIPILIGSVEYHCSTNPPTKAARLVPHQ

Consider `CC(C)CC(NC(=O)c1ccc(-c2csc(Nc3ccncc3)n2)cc1)C(=O)NCCN(CC(C)C)CC(C)C` (stereo not drawn) [Compound 22], for which, in [1], the “Inhibition of growth of BESM cells” value is around 90%. In addition, the Ki (commonly a dissociation constant, usually derived from enzyme kinetics or from competition with a known ligand) at human cathepsin B was 4500 nM; at human cathepsin L it was 71 nM. Also, the GI50 (usually the concentration giving 50% growth inhibition) in [2] was found to be 800 nM; in data set [3], 200 nM. Further, the half-inhibitory concentration (IC50) (as a rule, the concentration needed to halve the response being measured) was determined as 1600 nM at cruzain and 640 nM at rhodesain. Moreover, in data set [4], the cytotoxicity at 40 h, 10 µM is below 5%. Moreover, the “Cytotoxicity (% inhibition at 10 µM) Jurkat cells” value in [5] is “did not inhibit the growth”.

Regarding `CCCCC(NC(=O)C(CCC)NC(c1ccc(-c2ccc(S(C)(=O)=O)cc2)cc1)C(F)(F)F)C(=O)c1nnc(-c2ccco2)o1` (stereo not drawn) [Compound 24], the concentration for 50% growth inhibition (GI50) at 72 h in [6] was above 20000 nM. Moreover, the results for the Ki on human cathepsin B and on human cathepsin L were 1.6 nM and 18 nM, respectively. Moreover, the 50% growth inhibitory concentration (GI50) in data set [2] was found to be 7600 nM; in [3], 7000 nM. The IC50 on TbCatB amounted to 50 nM; at cruzain, 10 nM; at rhodesain, 6 nM. Further, the cytotoxicity at 40 h, 10 µM in data set [4] was below 5%.
